“And” between values parts separate entries of the source, which are not always exact repeats. Identical values can stand only once.
Legend:
[1] = tested on: house fly, Musca domestica; test: Choice-test arena bioassay (contact irritancy), house fly; format: in vivo; details: for Percentage Repellency: 300-second period
Experimental: A choice-test arena was used to assess irritancy of test solutions to two common household insect pests, the German cockroach (Blattella germanica) and the house fly (Musca domestica). Catnip essential oil obtained by steam distillation of catnip obtained from the same source as described in the above examples, and the two major components of its essential oil, Z,E-nepetalactone and E,Z-nepetalactone (isolated from the essential oil by preparative TLC), were evaluated for behavioral effects of contact irritancy to the German cockroach. The TLC was performed as described in McElvain, S. M. et al., J. Am. Chem. Soc., 1941, 63, 1558-1563. Catnip essential oil and its major constituent Z,E-nepetalactone were tested against the house fly. N,N-diethyl-m-toluamide (DEET) (Aldrich, St. Louis, Mo.) served as a positive control for the choice-test arena assay and as a point of comparison for measuring insect behavioral effects that result from current commercial insect repellents. Test solutions ranging from 10% to 0.1% (vol/vol) active ingredient (a.i.) were made up in acetone and then delivered on to a filter paper for solvent evaporation. […] Choice-test are for German cockroaches and house flies were constructed from plastic Petri dishes. One-half of a 12.5-cm dia. filter paper was treated with 1 ml test solution, and the other was treated with 1 ml of only solvent (control). Both halves of the filter paper were placed in the choice-test arena. Position of the treated filter paper was randomized using a random-number table.
Individual German cockroaches or house flies were placed in each choice-test arena through a centered hole in the lid of the Petri dish and evaluated for a 300-second period. The amount of time the insect spent on the treated and untreated filter papers were recorded and used to calculate a percentage repellency value: Percentage Repellency=((Time on Untreated-Time on Treated)/300)×100
Ten replicates of each treatment solution were tested for both German cockroaches and house flies. Details of this assay design and some results have previously been described.

female German cockroach = test: Choice test arena repellency, female German cockroach; format: in vivo, Blattella germanica; parameters: key: seconds spent on the side during a 300-second period; details: 10% by volume (1600 μg/cm^2) vs. acetone
Experimental: One Whatman 125-mm round filter paper was cut in half. One side was treated with one (1) ml of the test compound and the other side was treated with one (1) ml of solvent. The papers were allowed to dry in a fume hood for approximately two (2) minutes before being placed in a 150-mm Petri dish arena. The relative position of the treated side (i.e., to the right or left) of the dish was randomized using a random number table. […] The hole was stopped using a small piece of tape to prevent the insect from escaping. One adult male German cockroach (Blattella germanica) was selected from the colony and dropped into the pre-formed hole in the Petri dish lid. Immediately after introduction of the cockroach, the number of seconds the cockroach spent on the treated or untreated side during a 300-second (five (5) minute) period was recorded with two different (2) stopwatches. Ten (10) replications were performed for each test compound.
Testing methods and materials. In this experiment, female German cockroaches were tested in the same manner described in Example 1 against the steam distillates of catnip and the Osage orange. Testing using the commercial repellent, DEET, was also performed for comparison. It is known that male cockroaches are generally more sensitive to repellents, such as DEET, than female cockroaches.

[2] = tested on: antennectomized male German cockroaches; test: Choice test arena behavioral assay of antennectomized male cockroaches; format: in vivo, Blattella germanica; details: Annectomized male cockroaches; 1600 μg/cm^2
Experimental: Testing Procedure. Male cockroaches were antennectomized by using a razor blade to remove the antennae as close to the head as possible. The cockroaches were allowed to recover from the procedure for 24 hours before being exposed to the test compounds in the bioassay described in Example 1. Results.

`CCN(CC)C(=O)c1cccc(C)c1` [DEET, N,N-diethyl-3-methylbenzamide, reference compound] was tested, and the “higher percentage repellency values (text summary of Table 15)” value ([1]; across application rates tested) was 39%, the “Percentage Repellency” value ([1]; application rate 80 μg/cm^2) was 38.7% and the “Percentage Repellency” value ([1]; application rate 160 μg/cm^2) was 19.3%. For the same molecule, the “Percentage Repellency” value ([1]; application rate 800 μg/cm^2) was 20.7%, the “treated, mean of 10 trials” value (female German cockroach) was 144 and the “untreated, mean of 10 trials” value (female German cockroach) was 156.9. For the same molecule, the “treated (time on treated side), single trials 1-10” value (female German cockroach; 300-second test as Example 1, in s (unit assumed)) was 99 and 166 and 116 and 181 and 157 and 146 and 137 and 150, the “Mean seconds on treated side ± SEM” value [2] was 148 ± 17.1 s and the “Mean seconds on untreated side” value [2] was 154 ± 17.2 s.

Reference: patent US7939091B2, “Biorational repellents obtained from terpenoids for use against arthropods” (Iowa State University Research Foundation, Inc., priority 1999, dated 2011)
